Assays:
Test in all cases: KINOMEscan competition binding
Conditions in all cases: compound 10.0 µM
[1] = system: FGFR3 (human), P22607 [G697C]
[2] = target: MST1R (human) (UniProt Q04912)
[3] = target: CDK18 (human) (UniProt Q07002)
[4] = target: CDK2 (human) (UniProt P24941)
[5] = system: EGFR (human), P00533 [L861Q]
[6] = target: EPHA1 (human) (UniProt P21709)
[7] = target: NEK6 (human) (UniProt Q9HC98)
[8] = target: DCLK3 (human) (UniProt Q9C098)
[9] = target: ERBB4 (human) (UniProt Q15303)
[10] = system: KIT (human), P10721 [V559D]
[11] = target: NEK1 (human) (UniProt Q96PY6)
[12] = target: EPHB3 (human) (UniProt P54753)
[13] = target: PRKACA (human) (UniProt P17612)
[14] = target: MAP2K6 (human) (UniProt P52564)
[15] = target: EIF2AK2 (human) (UniProt P19525)
[16] = target: STK25 (human) (UniProt O00506)
[17] = target: RIPK4 (human) (UniProt P57078)
[18] = target: MAPK9 (human) (UniProt P45984)
[19] = target: CLK3 (human) (UniProt P49761)
[20] = target: CHUK (human) (UniProt O15111)
[21] = target: EPHA4 (human) (UniProt P54764)
[22] = system: ABL1 (human), P00519 [Y253F]
[23] = target: CDK11B (human) (UniProt P21127)
[24] = target: PRKCH (human) (UniProt P24723)
[25] = target: MINK1 (human) (UniProt Q8N4C8)
[26] = system: FLT3 (human), P36888 [D835H]
[27] = target: STK10 (human) (UniProt O94804)
[28] = target: ULK3 (human) (UniProt Q6PHR2)
[29] = target: MAP4K1 (human) (UniProt Q92918)
[30] = target: AURKC (human) (UniProt Q9UQB9)
[31] = target: GSK3A (human) (UniProt P49840)
[32] = target: SRPK3 (human) (UniProt Q9UPE1)
[33] = target: CDK15 (human) (UniProt Q96Q40)
[34] = target: PRKG1 (human) (UniProt Q13976)
[35] = target: IKBKE (human) (UniProt Q14164)
[36] = target: PIM2 (human) (UniProt Q9P1W9)
[37] = system: ABL1 (human), P00519 [E255K]
[38] = target: CDC2L2 (human) (UniProt Q9UQ88)
[39] = target: EPHA8 (human) (UniProt P29322)
[40] = target: EPHA2 (human) (UniProt P29317)
[41] = target: TEC (human) (UniProt P42680)
[42] = target: ANKK1 (human) (UniProt Q8NFD2)
[43] = target: NTRK1 (human) (UniProt P04629)

EPHB3 (human), sequence (P54753 whole entry, looked up): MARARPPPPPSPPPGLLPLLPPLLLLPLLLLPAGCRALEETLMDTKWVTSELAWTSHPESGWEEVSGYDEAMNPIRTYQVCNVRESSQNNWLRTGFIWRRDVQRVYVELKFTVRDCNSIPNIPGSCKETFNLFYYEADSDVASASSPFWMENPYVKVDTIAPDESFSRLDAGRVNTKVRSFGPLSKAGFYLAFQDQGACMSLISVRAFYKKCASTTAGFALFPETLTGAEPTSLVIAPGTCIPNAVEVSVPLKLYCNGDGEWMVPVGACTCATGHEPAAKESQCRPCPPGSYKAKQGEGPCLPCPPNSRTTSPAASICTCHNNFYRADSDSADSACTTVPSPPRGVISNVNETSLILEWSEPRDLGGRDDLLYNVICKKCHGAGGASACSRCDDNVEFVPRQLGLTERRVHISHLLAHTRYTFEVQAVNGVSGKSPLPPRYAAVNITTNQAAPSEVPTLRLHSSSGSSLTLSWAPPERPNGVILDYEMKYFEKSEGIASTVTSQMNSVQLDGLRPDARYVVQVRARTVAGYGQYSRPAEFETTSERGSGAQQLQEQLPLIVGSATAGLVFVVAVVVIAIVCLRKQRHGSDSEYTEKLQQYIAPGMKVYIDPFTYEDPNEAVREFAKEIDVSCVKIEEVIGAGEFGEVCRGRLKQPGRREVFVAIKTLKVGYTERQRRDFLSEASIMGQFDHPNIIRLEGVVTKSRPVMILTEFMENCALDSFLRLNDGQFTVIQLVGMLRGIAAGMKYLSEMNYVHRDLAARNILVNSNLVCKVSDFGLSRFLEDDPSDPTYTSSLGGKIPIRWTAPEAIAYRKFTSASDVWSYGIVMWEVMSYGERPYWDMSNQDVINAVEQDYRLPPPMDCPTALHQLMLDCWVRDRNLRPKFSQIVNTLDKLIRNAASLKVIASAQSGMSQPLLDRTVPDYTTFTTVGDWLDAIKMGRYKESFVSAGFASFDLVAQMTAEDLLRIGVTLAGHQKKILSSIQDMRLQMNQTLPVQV
DCLK3 (human), sequence (Q9C098 whole entry, looked up): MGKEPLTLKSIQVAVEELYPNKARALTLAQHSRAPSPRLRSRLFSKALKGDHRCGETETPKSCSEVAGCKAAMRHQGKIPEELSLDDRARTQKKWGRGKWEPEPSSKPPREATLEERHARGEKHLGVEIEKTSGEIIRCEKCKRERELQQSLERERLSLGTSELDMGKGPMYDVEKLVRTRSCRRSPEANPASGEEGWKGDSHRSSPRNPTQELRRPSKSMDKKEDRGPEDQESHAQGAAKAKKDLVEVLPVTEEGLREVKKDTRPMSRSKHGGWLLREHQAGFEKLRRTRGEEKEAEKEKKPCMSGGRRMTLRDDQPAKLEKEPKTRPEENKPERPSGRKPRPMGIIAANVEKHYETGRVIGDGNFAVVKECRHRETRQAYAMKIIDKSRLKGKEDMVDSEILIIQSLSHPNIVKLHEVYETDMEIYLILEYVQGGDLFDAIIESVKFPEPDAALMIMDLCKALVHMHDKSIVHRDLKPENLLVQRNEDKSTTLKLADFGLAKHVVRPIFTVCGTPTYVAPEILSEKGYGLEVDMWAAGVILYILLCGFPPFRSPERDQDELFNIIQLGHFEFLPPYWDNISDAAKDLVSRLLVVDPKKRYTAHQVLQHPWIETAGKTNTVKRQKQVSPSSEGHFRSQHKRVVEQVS
PIM2 (human), sequence (Q9P1W9 whole entry, looked up): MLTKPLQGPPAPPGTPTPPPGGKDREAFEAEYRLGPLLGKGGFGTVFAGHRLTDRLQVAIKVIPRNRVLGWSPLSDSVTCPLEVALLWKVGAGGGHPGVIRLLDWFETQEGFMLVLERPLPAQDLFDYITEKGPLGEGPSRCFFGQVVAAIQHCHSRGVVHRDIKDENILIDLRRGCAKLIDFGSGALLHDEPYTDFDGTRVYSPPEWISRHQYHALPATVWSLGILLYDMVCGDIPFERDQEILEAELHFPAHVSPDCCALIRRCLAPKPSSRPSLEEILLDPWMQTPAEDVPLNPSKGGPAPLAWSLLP
EPHA8 (human), sequence (P29322 whole entry, looked up): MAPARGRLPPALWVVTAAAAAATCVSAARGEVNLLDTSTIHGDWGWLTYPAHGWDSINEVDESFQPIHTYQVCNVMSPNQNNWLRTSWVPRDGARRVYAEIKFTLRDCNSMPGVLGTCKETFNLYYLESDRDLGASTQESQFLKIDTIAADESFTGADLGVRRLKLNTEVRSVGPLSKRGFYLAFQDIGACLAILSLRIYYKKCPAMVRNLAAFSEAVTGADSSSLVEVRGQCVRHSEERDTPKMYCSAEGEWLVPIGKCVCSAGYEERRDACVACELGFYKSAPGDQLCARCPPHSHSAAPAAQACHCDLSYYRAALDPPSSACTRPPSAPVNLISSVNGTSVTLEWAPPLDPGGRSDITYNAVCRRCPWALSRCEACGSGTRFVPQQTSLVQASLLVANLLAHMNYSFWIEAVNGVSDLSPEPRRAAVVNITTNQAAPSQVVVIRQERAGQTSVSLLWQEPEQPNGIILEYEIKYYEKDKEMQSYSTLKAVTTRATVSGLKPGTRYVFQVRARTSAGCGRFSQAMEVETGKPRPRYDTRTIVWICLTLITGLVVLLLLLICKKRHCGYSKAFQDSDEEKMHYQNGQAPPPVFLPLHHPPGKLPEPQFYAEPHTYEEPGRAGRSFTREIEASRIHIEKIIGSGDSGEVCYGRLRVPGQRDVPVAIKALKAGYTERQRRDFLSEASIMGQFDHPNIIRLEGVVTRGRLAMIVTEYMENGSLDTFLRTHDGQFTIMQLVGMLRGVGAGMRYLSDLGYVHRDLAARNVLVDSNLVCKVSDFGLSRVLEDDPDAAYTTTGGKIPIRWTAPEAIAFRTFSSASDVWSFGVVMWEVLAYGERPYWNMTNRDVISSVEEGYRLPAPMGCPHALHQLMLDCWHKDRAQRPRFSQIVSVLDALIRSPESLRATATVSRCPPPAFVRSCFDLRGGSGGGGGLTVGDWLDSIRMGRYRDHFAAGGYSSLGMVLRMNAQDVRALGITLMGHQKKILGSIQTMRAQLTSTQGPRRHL
MAP2K6 (human), sequence (P52564 whole entry, looked up): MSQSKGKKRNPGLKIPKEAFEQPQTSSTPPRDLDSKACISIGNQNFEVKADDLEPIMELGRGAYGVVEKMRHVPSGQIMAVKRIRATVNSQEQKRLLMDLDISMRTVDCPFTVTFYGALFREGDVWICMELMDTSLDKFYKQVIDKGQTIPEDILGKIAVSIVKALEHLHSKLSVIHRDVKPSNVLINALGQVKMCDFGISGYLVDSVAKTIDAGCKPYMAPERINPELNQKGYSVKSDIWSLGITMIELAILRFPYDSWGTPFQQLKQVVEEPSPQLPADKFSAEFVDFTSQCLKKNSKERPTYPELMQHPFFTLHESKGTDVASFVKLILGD
ANKK1 (human), sequence (Q8NFD2 whole entry, looked up): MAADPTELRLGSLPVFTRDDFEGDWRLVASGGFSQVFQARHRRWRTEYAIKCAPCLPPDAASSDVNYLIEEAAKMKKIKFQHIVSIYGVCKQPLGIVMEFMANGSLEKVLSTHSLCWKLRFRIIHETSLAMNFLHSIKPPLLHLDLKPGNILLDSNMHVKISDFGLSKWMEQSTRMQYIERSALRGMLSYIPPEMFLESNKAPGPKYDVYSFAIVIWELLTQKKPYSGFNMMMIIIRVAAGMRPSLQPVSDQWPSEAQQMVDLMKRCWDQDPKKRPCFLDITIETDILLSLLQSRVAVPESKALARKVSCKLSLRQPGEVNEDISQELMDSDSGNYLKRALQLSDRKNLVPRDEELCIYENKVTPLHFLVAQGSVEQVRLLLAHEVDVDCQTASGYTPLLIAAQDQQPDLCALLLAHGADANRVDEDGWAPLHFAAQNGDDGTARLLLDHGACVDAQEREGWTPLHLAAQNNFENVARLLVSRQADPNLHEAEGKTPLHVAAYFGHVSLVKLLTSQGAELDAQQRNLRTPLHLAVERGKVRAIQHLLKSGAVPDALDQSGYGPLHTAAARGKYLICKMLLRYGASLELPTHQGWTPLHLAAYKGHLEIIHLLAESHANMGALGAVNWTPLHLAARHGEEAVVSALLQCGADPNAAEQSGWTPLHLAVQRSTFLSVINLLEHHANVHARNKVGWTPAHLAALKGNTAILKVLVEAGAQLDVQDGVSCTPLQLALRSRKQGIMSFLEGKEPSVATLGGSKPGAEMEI
STK25 (human), sequence (O00506 whole entry, looked up): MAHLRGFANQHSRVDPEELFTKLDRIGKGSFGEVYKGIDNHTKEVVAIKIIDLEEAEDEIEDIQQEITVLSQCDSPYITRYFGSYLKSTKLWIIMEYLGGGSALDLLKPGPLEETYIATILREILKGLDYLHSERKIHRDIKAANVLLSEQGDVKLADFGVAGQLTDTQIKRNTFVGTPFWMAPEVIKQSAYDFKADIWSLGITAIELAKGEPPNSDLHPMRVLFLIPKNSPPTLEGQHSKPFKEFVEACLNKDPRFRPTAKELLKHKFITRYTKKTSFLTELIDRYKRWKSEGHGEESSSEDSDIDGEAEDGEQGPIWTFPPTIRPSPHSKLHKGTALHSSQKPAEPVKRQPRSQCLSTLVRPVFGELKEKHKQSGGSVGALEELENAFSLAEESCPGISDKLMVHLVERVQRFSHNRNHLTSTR
GSK3A (human), sequence (P49840 whole entry, looked up): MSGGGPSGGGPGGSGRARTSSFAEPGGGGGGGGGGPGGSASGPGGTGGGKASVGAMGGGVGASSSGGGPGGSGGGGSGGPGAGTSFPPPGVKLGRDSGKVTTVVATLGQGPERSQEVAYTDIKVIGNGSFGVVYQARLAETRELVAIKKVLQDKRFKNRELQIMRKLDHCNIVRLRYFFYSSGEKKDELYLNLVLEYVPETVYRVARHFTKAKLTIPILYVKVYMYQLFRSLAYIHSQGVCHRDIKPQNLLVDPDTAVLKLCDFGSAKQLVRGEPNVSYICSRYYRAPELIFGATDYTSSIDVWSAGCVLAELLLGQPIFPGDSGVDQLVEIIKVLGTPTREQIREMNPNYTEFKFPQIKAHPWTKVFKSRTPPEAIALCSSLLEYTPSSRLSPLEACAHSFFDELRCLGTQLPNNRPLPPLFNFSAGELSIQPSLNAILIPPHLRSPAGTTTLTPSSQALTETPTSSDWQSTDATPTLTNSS

`CCOc1cc(N2CCC(N3CCCCC3)CC2)ccc1Nc1nc(Nc2ccccc2S(=O)(=O)C(C)C)c2cn[nH]c2n1` was tested, and the kinase still bound, per cent of control [1] was 97%, the kinase still bound, per cent of control [2] was 100% and the kinase still bound, per cent of control [3] was 100%. For the same molecule, the kinase still bound, per cent of control [4] was 100%, the kinase still bound, per cent of control [5] was 7.7% and the kinase still bound, per cent of control [6] was 100%. The kinase still bound, per cent of control [7] was 100%, the kinase still bound, per cent of control [8] was 100% and the kinase still bound, per cent of control [9] was 7.8%. It also gave a kinase still bound, per cent of control [10] of 86%, a kinase still bound, per cent of control [11] of 100% and a kinase still bound, per cent of control [12] of 100%. For the same molecule, the kinase still bound, per cent of control [13] was 100%, the kinase still bound, per cent of control [14] was 100% and the kinase still bound, per cent of control [15] was 100%. For the same molecule, the kinase still bound, per cent of control [16] was 95%, the kinase still bound, per cent of control [17] was 76% and the kinase still bound, per cent of control [18] was 22%. For the same molecule, the kinase still bound, per cent of control [19] was 50%, the kinase still bound, per cent of control [20] was 100% and the kinase still bound, per cent of control [21] was 100%. For the same molecule, the kinase still bound, per cent of control [22] was 61%, the kinase still bound, per cent of control [23] was 100% and the kinase still bound, per cent of control [24] was 100%. It also gave a kinase still bound, per cent of control [25] of 71%, a kinase still bound, per cent of control [26] of 74% and a kinase still bound, per cent of control [27] of 100%. The kinase still bound, per cent of control [28] was 100%, the kinase still bound, per cent of control [29] was 54% and the kinase still bound, per cent of control [30] was 100%. For the same molecule, the kinase still bound, per cent of control [31] was 100%, the kinase still bound, per cent of control [32] was 100% and the kinase still bound, per cent of control [33] was 100%. It also gave a kinase still bound, per cent of control [34] of 100%, a kinase still bound, per cent of control [35] of 100% and a kinase still bound, per cent of control [36] of 100%. The kinase still bound, per cent of control [37] was 67%, the kinase still bound, per cent of control [38] was 100% and the kinase still bound, per cent of control [39] was 100%. The kinase still bound, per cent of control [40] was 100%, the kinase still bound, per cent of control [41] was 98% and the kinase still bound, per cent of control [42] was 100%. It also gave a kinase still bound, per cent of control [43] of 72%.
